Literature values, collected in patent US20210065841A1, “METHOD FOR DETERMINING ANDROGEN AND ANTI-ANDROGEN EFFECTS ON SUBSTANCES” (priority 2018, published 2021).

Biological target: T1, androgen receptor (Homo sapiens, UniProt P10275)
T1 sequence (P10275 1-920): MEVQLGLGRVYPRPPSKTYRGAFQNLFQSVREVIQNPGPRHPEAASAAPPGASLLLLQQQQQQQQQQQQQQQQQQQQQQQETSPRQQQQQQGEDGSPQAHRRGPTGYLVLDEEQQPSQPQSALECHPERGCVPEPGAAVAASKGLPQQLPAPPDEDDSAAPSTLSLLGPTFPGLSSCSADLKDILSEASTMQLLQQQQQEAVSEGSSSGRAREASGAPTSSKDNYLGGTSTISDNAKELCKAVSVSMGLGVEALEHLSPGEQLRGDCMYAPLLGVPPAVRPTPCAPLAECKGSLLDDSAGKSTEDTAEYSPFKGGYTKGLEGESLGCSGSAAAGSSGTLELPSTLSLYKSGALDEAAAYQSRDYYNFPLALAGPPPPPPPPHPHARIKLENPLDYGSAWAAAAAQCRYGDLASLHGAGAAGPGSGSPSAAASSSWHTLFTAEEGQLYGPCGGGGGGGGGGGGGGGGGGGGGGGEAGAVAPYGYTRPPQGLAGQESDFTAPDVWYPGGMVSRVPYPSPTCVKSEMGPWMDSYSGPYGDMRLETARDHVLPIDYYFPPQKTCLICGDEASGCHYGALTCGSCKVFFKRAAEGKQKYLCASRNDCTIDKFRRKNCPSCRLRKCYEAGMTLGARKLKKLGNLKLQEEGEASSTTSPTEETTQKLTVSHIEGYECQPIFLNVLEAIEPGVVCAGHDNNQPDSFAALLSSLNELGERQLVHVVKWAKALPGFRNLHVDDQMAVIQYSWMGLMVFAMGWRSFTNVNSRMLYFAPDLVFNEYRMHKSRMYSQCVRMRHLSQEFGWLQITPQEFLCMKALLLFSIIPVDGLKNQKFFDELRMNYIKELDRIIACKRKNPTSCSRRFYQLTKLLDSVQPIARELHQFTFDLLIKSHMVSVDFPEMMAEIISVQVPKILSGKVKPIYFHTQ
Conditions: previous reports

Compound | androgen receptor antagonistic properties
CCCCC(CC)COC(=O)c1cc(Br)c(Br)c(Br)c1Br (centres unmarked) [TBB] | androgen receptor antagonistic properites
BrC1CCC(Br)C(Br)CCC1Br (centres unmarked) [TBCO] | androgen receptor antagonistic properites
